# Measurements reported in patent US8614166B2, “Herbicidal composition for tolerant or resistant cotton crops” (Bayer Intellectual Property GmbH, priority 1998, dated 2013).
# Structures can show the parent of a compound that is named as a salt.
# Experiments:
# Test in all cases: Field trial in tolerant cotton, herbicidal action against weed
# Type in all cases: in vivo
# [1] = tested on: Sorghum halepense; conditions: application in the 4-leaf stage, scoring 30 days after application
# Experimental: (§1) Transgenic cotton plants with a resistance to one or more herbicides (A) together with typical weed plants were grown in the open on 2×5 m plots under natural field conditions; alternatively, weed infestation occurred naturally when the cotton plants were grown.
# (§2) 2, 4, 6 and 8 weeks after the application, the herbicidal activity of the active substances or active substance mixtures was scored visually with reference to the treated plots in comparison to untreated control plots. The damage to, and the development of, all aerial parts of the plants was recorded. Scoring was done on the basis of a percentage sale (100% action=all plants destroyed; 50% action=50% of the plants and green parts of the plants destroyed; 0% action=no recognizable effect=like control plot. The mean of the score values of in each case 4 plots was calculated.
# [2] = tested on: Abutilon theophrasti; conditions: dose 300 g of a.s./ha; application in the 4-5 leaf stage; scoring 27 days after application
# Experimental: as §1, §2
# [3] = tested on: Datura stramonium; conditions: application in the 4-5-leaf stage, scoring 3 weeks after application
# Experimental: as §1
# (§3) […] The damage to, and the development of, all aerial parts of the plants was recorded. Scoring was done on the basis of a percentage sale (100% action=all plants destroyed; 50% action=50% of the plants and green parts of the plants destroyed; 0% action=no recognizable effect=like control plot. The mean of the score values of in each case 4 plots was calculated.
# [4] = tested on: Echinocloa colonum; conditions: application in the 4-5-leaf stage, scoring 3 weeks after application
# Experimental: as §1, §3
# [5] = tested on: Ipomoea hederacea; conditions: application in the 4-leaf stage, scoring 23 days after application
# Experimental: as §1, §3
smiles,measurement,setting,value
"CP(=O)(O)CCC(N)C(=O)O (stereo not shown) [(A1.2), glufosinate-monoammonium salt]",Herbicidal action (%) against Sorghum halepense,[1]; dose 300 g of a.s./ha,15%
same,Herbicidal action (%) against Sorghum halepense,[1]; dose 500 g of a.s./ha,53%
same,Herbicidal action (%) against Abutilon theophrasti,[2],30%
same,Herbicidal action (%) against Datura stramonium,[3]; dose 450 g of a.s./ha,75%
same,Herbicidal action (%) against Datura stramonium,[3]; dose 600 g of a.s./ha,90%
same,Herbicidal action (%) against Datura stramonium,[3]; dose 1000 g of a.s./ha,100%
same,Herbicidal action (%) against Echinocloa colonum,[4]; dose 450 g of a.s./ha,0%
same,Herbicidal action (%) against Echinocloa colonum,[4]; dose 600 g of a.s./ha,15%
same,Herbicidal action (%) against Echinocloa colonum,[4]; dose 1000 g of a.s./ha,30%
same,Herbicidal action (%) against Ipomoea hederacea,[5]; dose 400 g of a.s./ha,43%
same,Herbicidal action (%) against Ipomoea hederacea,[5]; dose 600 g of a.s./ha,75%
"COCc1cnc(C2=NC(C)(C(C)C)C(=O)N2)c(C(=O)O)c1 (stereo not shown) [(A3.5), imazamox]",Herbicidal action (%) against Ipomoea hederacea,[5]; dose 35 g of a.s./ha,42%
"CN(C)C(=O)Nc1cccc(C(F)(F)F)c1 [(B1.2), N,N-dimethyl-N′-[3-(trifluoromethyl)phenyl]urea]",Herbicidal action (%) against Ipomoea hederacea,[5]; dose 1120 g of a.s./ha,37%
"CCc1cccc(C)c1N(C(=O)CCl)C(C)COC (stereo not shown) [(B1.9), 2-chloro-N-(2-ethyl-6-methylphenyl)-N-(2-methoxy-1-methylethyl)acetamide]",Herbicidal action (%) against Datura stramonium,[3]; dose 930 g of a.s./ha,0%
same,Herbicidal action (%) against Echinocloa colonum,[4]; dose 930 g of a.s./ha,88%
"CCC(CC)Nc1c([N+](=O)[O-])cc(C)c(C)c1[N+](=O)[O-] [(B1.12), N-(1-ethylpropyl)-2,6-dinitro-3,4-xylidine]",Herbicidal action (%) against Ipomoea hederacea,[5]; dose 925 g of a.s./ha,42%
"COc1cc(OC)nc(Sc2cccc(Cl)c2C(=O)[O-])n1.[Na+] [(B2.4), sodium 2-chloro-6-(4,6-dimethoxypyrimidin-2-ylthio)benzoate]",Herbicidal action (%) against Ipomoea hederacea,[5]; dose 105 g of a.s./ha,42%
"CCCC(=NOCC)C1=C(O)CC(C2CCCSC2)CC1=O (stereo not shown) [(B4.2), 2-(1-ethoxyiminobutyl)-3-hydroxy-5-thian-3-ylcyclohex-2-enone]",Herbicidal action (%) against Sorghum halepense,[1]; dose 125 g of a.s./ha,58%
"N#Cc1cc(Br)c(O)c(Br)c1 [(B5.1), 3,5-dibromo-4-hydroxybenzonitrile]",Herbicidal action (%) against Ipomoea hederacea,[5]; dose 560 g of a.s./ha,32%
